# Measured values as given in patent US20040157902A1, “Integrin antagonists” (priority 2001, published 2004).
# Assay: partition coefficient octanol/water at pH 7.4 (logD(7.4))
# Type: physicochemical
# Source text: If an active ingredient is introduced into an octanol/water mixture, it partitions between the two phases at a given pH in accordance with its lipophilicity/hydrophilicity. The ratio of the partitioning of the active ingredient between the octanol and water phases is known as the partition coefficient. Absorption of active ingredients requires that they both dissolve in aqueous media and also pass through the corresponding membranes. For the latter, a certain lipophilicity of the active ingredient is necessary. The requisite lipophilicity arises from the lipophilicity of the respective membrane. Thus, absorption in the intestine requires a logD value of >−1.50 and passage through the blood-brain barrier requires a logD value of >0.5 (Lipinski C. A: Adv. Drug Del. Rev. 23 (1997), 3-25). A favourable logD value is an essential prerequisite for absorption of an active ingredient.
# logD values given above and below are partition coefficients of the compounds in question octanol/water at a pH of 7.4 (logD(7.4)).
row,logD,Structure (SMILES)
1,6.52,"O=C(CCCCNc1ccccn1)NCC(=O)NC(Cc1nnn[nH]1)c1ccc(-c2ccccc2)cc1 (stereo not drawn) [EMD 389 889, N-[1-biphenyl-4-yl-2-(1H-tetrazol-5-yl)ethyl]-2-[5-(pyridin-2-ylamino)pentanoylamino]-acetamide]"
2,6.19,"O=C(CNC(=O)NCCCNc1ccccn1)NC(Cc1nnn[nH]1)c1ccc(-c2ccccc2)cc1 (stereo not drawn) [EMD 387 890, N-[1-biphenyl-4-yl-2-(1H-tetrazol-5-yl)ethyl]-2-{3-[3-(pyridin-2-ylamino)propyl]ureido}acetamide]"
3,-0.38,CS(=O)(=O)NC(=O)CC(NC(=O)CNC(=O)CCCCNc1ccccn1)c1ccc(-c2ccccc2)cc1 (stereo not drawn) [EMD 387 803]
